Read-outs that look alike come from different tables or passages of the source.
Key:
MIA-PaCa2 cells = conditions: cited from earlier work; for IC50: MIA-PaCa2, read-out: IC50 cytotoxicity
HT29-S-B6 cells = conditions: 10 μM, at least 3 days, exponential phase; cited from earlier work
[1] = tested on: advanced pancreatic cancer; conditions: 18 patients; cited from earlier work
CCKB receptor [2] = biological target: T1, CCKB receptor (Cavia porcellus, UniProt H0VZC5); assay: 125I-CCK-8 receptor binding assay, CCKB (guinea pig cerebral cortex)
T1 sequence (H0VZC5 1-426): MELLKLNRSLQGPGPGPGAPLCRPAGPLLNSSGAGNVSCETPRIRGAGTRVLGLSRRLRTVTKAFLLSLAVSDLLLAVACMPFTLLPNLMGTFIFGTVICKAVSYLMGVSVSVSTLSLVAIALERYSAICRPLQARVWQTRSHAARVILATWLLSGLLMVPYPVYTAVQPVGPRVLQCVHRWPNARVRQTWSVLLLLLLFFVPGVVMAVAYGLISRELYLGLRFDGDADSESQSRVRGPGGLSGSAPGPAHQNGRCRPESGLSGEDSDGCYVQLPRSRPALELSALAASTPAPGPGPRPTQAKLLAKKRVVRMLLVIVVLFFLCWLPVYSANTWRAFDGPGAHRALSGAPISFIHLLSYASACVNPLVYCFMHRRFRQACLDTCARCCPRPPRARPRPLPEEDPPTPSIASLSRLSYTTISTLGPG
Procedure: CCKA and CCKB receptor binding assays were performed, by using guinea pig cerebral cortex (CCKB) or rat pancreas (CCKA). […]. J. Pharmacol., 269, 249-254]. Pancreatic membranes were prepared in a similar way but by Charpentier et al [(1988), Cyclic cholecystokinin analogues with high selectivity for central receptors., Proc Natl Acad Sci USA, 85, 1968-1972]. The […] CCK binding assay: Tissues were homogenised in ice cold sucrose (0.32 M, 25 ml) for 15 strokes at 500 rpm and centrifuged at 13000 rpm for 10 mins. The supernatant was re-centrifuged at 13000 rpm for 20 mins. The resulting pellet was re-dispersed to the required volume of buffer at 500 rpm and stored in aliquots at […].
(§1) The samples were incubated {with membranes (0.1 mg/ml)} in 20 mM Hepes, 1 mM EGTA, 5 mM MgCl2, 150 mm NaCl, 0.25 mg/ml bacitracin at pH 6.5 for 2 hrs at RT and then […] by centrifugation at 1100 rpm for 5 minutes. The membrane pellets were washed twice with water and the bound radioactivity was measured in a Packard Cobra Auto-gamma counter (B5005). All binding assays were carried out with L-363, 260 as an internal non-specific standard. Controls (no compound) were also added. All samples were made in duplicate and repeated twice. All compounds were initially screened for percentage inhibition at 20 μM.

CCKA receptor = biological target: T2, CCKA receptor (Rattus norvegicus, UniProt P30551); assay: 125I-CCK-8 receptor binding assay, CCKA (rat pancreas); conditions: for Ratio CCKB:CCKA: ratio of IC50 values; for CCKA binding activity in words: dimethylanilines with at least one meta group
T2 construct: Pancreatic membranes were prepared in a similar way; from tissue; host or cells: rat pancreas membranes
T2 sequence (P30551 1-444): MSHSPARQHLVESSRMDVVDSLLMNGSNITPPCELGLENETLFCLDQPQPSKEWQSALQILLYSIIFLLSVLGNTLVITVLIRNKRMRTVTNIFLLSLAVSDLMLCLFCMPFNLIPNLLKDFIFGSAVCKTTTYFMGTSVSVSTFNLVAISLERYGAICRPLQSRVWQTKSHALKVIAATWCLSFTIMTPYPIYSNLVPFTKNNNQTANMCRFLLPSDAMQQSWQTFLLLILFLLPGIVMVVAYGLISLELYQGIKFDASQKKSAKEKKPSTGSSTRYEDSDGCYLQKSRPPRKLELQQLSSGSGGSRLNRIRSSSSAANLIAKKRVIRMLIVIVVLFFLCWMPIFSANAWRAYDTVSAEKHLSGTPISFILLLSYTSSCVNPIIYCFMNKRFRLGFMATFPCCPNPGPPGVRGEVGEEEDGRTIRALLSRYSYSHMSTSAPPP
Procedure: CCKA and CCKB receptor binding assays were performed, by using guinea pig cerebral cortex (CCKB) or rat pancreas (CCKA). Male guinea pig brain tissues were prepared according to the modified method described by Saita et al [(1994), Characterization of YM022: its CCKB/gastrin receptor binding profile and antagonism to CCK-8-induced Ca2+ mobilization., Eur. J. Pharmacol., 269, 249-254]. Pancreatic membranes were prepared in a similar way but by Charpentier et al [(1988), Cyclic cholecystokinin analogues with high selectivity for central receptors., Proc Natl Acad Sci USA, 85, 1968-1972]. The […] CCK binding assay: Tissues were homogenised in ice cold sucrose (0.32 M, 25 ml) for 15 strokes at 500 rpm and centrifuged at 13000 rpm for 10 mins. The supernatant was re-centrifuged at 13000 rpm for 20 mins. The resulting pellet was re-dispersed to the required volume of buffer at 500 rpm and stored in aliquots at […].
as §1

CCKB/gastrin receptor = conditions: cited from earlier work
[3] = biological target: T3, pancreatic and gallbladder CCK receptors (Homo sapiens, UniProt P32238); conditions: cited from earlier work
T3 sequence (P32238 1-428): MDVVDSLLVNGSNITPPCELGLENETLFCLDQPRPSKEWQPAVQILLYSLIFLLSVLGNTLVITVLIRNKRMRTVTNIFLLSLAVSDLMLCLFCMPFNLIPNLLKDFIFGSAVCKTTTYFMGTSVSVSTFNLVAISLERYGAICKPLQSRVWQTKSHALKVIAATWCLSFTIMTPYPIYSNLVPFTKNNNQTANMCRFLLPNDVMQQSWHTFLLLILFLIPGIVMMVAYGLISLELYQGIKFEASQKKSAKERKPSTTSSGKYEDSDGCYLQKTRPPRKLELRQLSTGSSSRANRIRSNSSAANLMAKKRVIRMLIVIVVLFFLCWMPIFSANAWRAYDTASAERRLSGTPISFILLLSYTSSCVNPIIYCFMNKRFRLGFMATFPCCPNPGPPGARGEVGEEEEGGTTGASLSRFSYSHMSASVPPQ

[4] = as the HCl salt; cited from earlier work
CCKB receptor [5] = conditions: cited from earlier work
[6] = satiated rats; cited from earlier work
[7] = mice, after intravenous injections; cited from earlier work

CN1C(=O)[C@@H](NC(=O)c2cc3ccccc3[nH]2)N=C(c2ccccc2)c2ccccc21 [Devazepide]
factor of enhancement of sensitivity of MIA-PaCa2 cells to DDP (MIA-PaCa2 cells): 3.5
IC50 (MIA-PaCa2 cells; constant exposure schedule): 9500 ± 1400 nM
enhancement of baseline production of carcinoembryonic antigens (HT29-S-B6 cells): 5 fold
enhancement of baseline production of gastric M1 mucins (HT29-S-B6 cells): 2-3 fold
impact on tumor progression, pain, or nutrition [1]: failed to demonstrate any impact
patients able to tolerate treatment [1]: 17 of 18

O=C1Nc2ccc(Cl)cc2C(c2ccccc2)=NC1Nc1ccccc1[N+](=O)[O-] (centres unmarked) [Example 35, 7-chloro-3-(2-nitroanilino)-5-phenyl-1,3-dihydro-2H-1,4-benzodiazepin-2-one]
IC50 (CCKB receptor [2]; IC50 CCKB, Table 3): 7500 nM
IC50 (CCKA receptor; Table 3): > 20000 nM

Cc1cccc(N(C)C2N=C(c3ccccc3)c3cc(Cl)ccc3NC2=O)c1 (centres unmarked) [Example 55, 7-chloro-3-(3-dimethylanilino)-5-phenyl-1,3-dihydro-2H-1,4-benzodiazepin-2-one]
IC50 (CCKB receptor [2]; IC50 CCKB): 70 nM
IC50 (CCKA receptor): 8 nM
Ratio CCKB:CCKA (CCKA receptor; Table 3): 9

N.N.[Cl][Pt][Cl] [DDP, cisplatin]
IC50 (MIA-PaCa2 cells; 1-h exposure): 35300 ± 3200 nM

Cc1cccc(NC(=O)NC2N=C(c3ccccc3)c3ccccc3N(CC(=O)c3ccccc3C)C2=O)c1 (centres unmarked) [YM022]
CCKA/CCKB ratio (CCKB/gastrin receptor): about 1300
IC50 (CCKB/gastrin receptor; read-out: IC50 CCKB/gastrin receptor affinity): 0.11 nM

O=C1Nc2ccc(Cl)cc2C(c2ccccc2)=NC1Nc1ccc([N+](=O)[O-])cc1 (centres unmarked) [Example 37]
IC50 (CCKB receptor [2]; IC50 CCKB, Table 3): 8500 nM
IC50 (CCKA receptor; Table 3): > 20000 nM

CC(C)C[C@@H]1N[C@H]2N(C1=O)c1ccccc1[C@@]2(O)C[C@@H]1NC(=O)c2ccccc2-n2c1nc1ccccc1c2=O [Asperlicin]
affinity relative to proglumide [3]: 300-400 times

Cc1cccc(NC(=O)NC2N=C(N3CC4CCC(C4)C3)c3ccccc3N(C)C2=O)c1 [L-740,093]
water solubility compared to L-365,260 [4]: one hundred fold improved

Cc1cc(C)cc(NC2N=C(c3ccccc3)c3cc(Cl)ccc3NC2=O)c1 (centres unmarked) [Example 50]
IC50 (CCKB receptor [2]; IC50 CCKB, Table 3): 2900 nM
IC50 (CCKA receptor; Table 3): 9 nM
Ratio CCKB:CCKA (CCKA receptor; Table 3): 322
CCKA binding activity in words (CCKA receptor): equally active

Cc1cccc(NC(=O)N[C@@H]2N=C(c3ccccc3)c3ccccc3N(C)C2=O)c1 [L-365,260]
IC50 (CCKB receptor [5]): 8.5 nM
affinity for gastrin/CCKB receptors relative to pancreatic CCKA (CCKB receptor [5]): 80 fold
selectivity for CCKB receptors over CCKA (CCKB receptor [5]): 87 fold
potency relative to Devazepide in increasing feeding frequency [6]: 100 times
brain uptake [7]: < 0.8 % dose/gram

Cc1ccc(NC2N=C(c3ccccc3)c3cc(Cl)ccc3NC2=O)cc1C (centres unmarked) [Example 48]
IC50 (CCKB receptor [2]; IC50 CCKB, Table 3): 920 nM
IC50 (CCKA receptor; Table 3): 15 nM
Ratio CCKB:CCKA (CCKA receptor; Table 3): 61
CCKA binding activity in words (CCKA receptor): equally active

Cc1cccc(N(C)C2N=C(c3ccccc3)c3cc(Cl)ccc3N(CC(=O)C(C)(C)C)C2=O)c1 (racemic) [Example 64, 7-chloro-1-(3,3-dimethyl-2-oxobutyl)-3-(3-dimethylanilino)-5-phenyl-1,3-dihydro-2H-1,4-benzodiazepin-2-one]
IC50 (CCKB receptor [2]; read-out: IC50 CCKB): ~8 nM
IC50 (CCKA receptor): ~24 nM

O=C1Nc2ccc(Cl)cc2C(c2ccccc2)=NC1Nc1cccc(Cl)c1 (centres unmarked) [Example 39, 7-chloro-3-(3-chloroanilino)-5-phenyl-1,3-dihydro-2H-1,4-benzodiazepin-2-one]
IC50 (CCKB receptor [2]; IC50 CCKB, Table 3): 6200 nM
IC50 (CCKA receptor): 270 nM
Ratio CCKB:CCKA (CCKA receptor; Table 3): 23

Cc1ccc(NC(=O)NC2N=C(C3CCCCC3)c3ccccc3N(C)C2=O)cc1Nc1nnn[nH]1 [L-737,425]
CCKA/CCKB ratio (CCKB receptor [5]): 37000

Cc1cccc(C)c1NC1N=C(c2ccccc2)c2cc(Cl)ccc2NC1=O (centres unmarked) [Example 47]
IC50 (CCKB receptor [2]; IC50 CCKB, Table 3): > 10000 nM
IC50 (CCKA receptor; Table 3): 10000 nM

Cc1cccc(NC(=O)NC2N=C(C3CCCCC3)c3ccccc3N(C)C2=O)c1 [L-708,474]
IC50 (CCKB receptor [5]): 0.28 nM
selectivity for CCKB receptors over CCKA (CCKB receptor [5]): 6,500 fold

Cc1ccc(NC2N=C(c3ccccc3)c3cc(Cl)ccc3NC2=O)cc1 (centres unmarked) [Example 46]
IC50 (CCKB receptor [2]; IC50 CCKB, Table 3): 4600 nM
IC50 (CCKA receptor; Table 3): 290 nM
Ratio CCKB:CCKA (CCKA receptor; Table 3): 16

— patent US20070185094A1, “Novel 3-substitued-1,4-benzodiazepines” (ASTON UNIVERSITY, priority 2003, published 2007)
